Calls of active or inactive are those of the source.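 How the source made its calls: active means growth-inhibition EC50 no more than tenfold above the top tested dose; inconclusive means flat fit between 30% and 70% inhibition, or unreliable fit; inactive means EC50 more than tenfold above the top tested dose.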
System: E. coli NEB5alpha growth, BacTiter-Glo luminescence, 4 h
Assay: antibacterial activity against E. coli NEB5alpha – luminescence, counter-screen for MEX-5/POS-1 RNA-binding inhibitor project, dose response (AID 1959);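 further: pUC19-transformed ampicillin-resistant cells grown in LB with ampicillin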

| Compound | EC50 |
| --- | --- |
| COC/C=C/C1=CC2=CC(=O)C(C)(OC(=O)c3cccs3)C(=O)C2=CO1 (centres undefined) | > 11 µM (inactive) |
| CC(=O)c1c(C(C)=O)c(C)n(-c2ccc(C(=O)O)cc2)c1C | > 11 µM (inactive) |
| O=C(O)c1ccc2nc(-c3ccco3)c(-c3ccco3)nc2c1 | > 11 µM (inactive) |
| CCOC(=O)N1CCN(C(=O)c2ccc3c(c2)NC(=O)/C(=C\c2ccc(OC)c(OC)c2)S3)CC1 | > 11 µM (inactive) |
| COc1cccc(F)c1C(=O)NC(=O)Nc1ccc2nc(C)oc2c1 | > 11 µM (inactive) |
| CN1/C(=C/C=C(C#N)C#N)C(C)(C)c2ccccc21 | > 11 µM (inactive) |
| Cc1ncc(CO)c(/C=N/NC(=O)c2cc(O)c(O)c(O)c2)c1O | > 11 µM (inactive) |
| CCN(CC)c1ccc(N=Cc2c(O)n(-c3ccccc3)c(=O)[nH]c2=O)cc1 | > 11 µM (inactive) |
| CCCCOC(=O)CSC1=C(C#N)C(c2ccccc2OCC)C(C#N)C(=O)N1 (centres undefined) | > 11 µM (inactive) |
| NS(=O)(=O)c1ccc(Nc2nc(-c3ccc(O)cc3O)cs2)cc1 | > 11 µM (inactive) |
| O=C1CCC/C1=c1\s/c(=C\c2cccnc2)c(=O)n1-c1ccccc1 | > 11 µM (inactive) |
| CCN(CC)CCN1C(=O)c2cccc3cc(N)cc(c23)C1=O | > 11 µM (inactive) |
| CN1C(=O)c2cccc3c(N)ccc(c23)C1=O | > 11 µM (inactive) |
| Cc1ccc(/C=C2\C(=O)NC(=S)N(c3cccc(F)c3)C2=O)o1 | > 11 µM (inactive) |
| CCC(=O)Nc1cc(C)c(NC(=O)CCc2ccccc2)cn1 | > 11 µM (inactive) |
| Cc1c(N=Cc2c(O)n(C)c(=O)c3ccccc23)c(=O)n(-c2ccccc2)n1C | > 11 µM (inactive) |
| COC(=O)c1[nH]c2cc(OC)c(OC)cc2c1/C=N/Nc1ccccc1 | > 11 µM (inactive) |
| CCCCOc1c(Br)cc(/C=N/O)cc1OCC | > 11 µM (inactive) |
| O=C(NCc1ccccc1)C1Nc2ccc(OC(F)(F)F)cc2C2C=CCC12 (centres undefined) | > 11 µM (inactive) |
| O=C(Cc1nc2ccccc2[nH]c1=O)c1ccccc1 | > 11 µM (inactive) |

| Compound | EC50 |
| --- | --- |
| COc1ccccc1/C=C1/SC(=S)N(CCC(=O)Nc2cccnc2)C1=O | > 11 µM (inactive) |
| Cc1ncc(/C=C2\C(=O)Nc3ccccc32)[nH]1 | > 11 µM (inactive) |
| COc1ccccc1CCC(=O)OCc1csc(CC(=O)Nc2ccccc2C)n1 | > 11 µM (inactive) |
| CC(=O)Nc1ccc(/C=C/C(=O)c2ccc3c(c2)OCCO3)cc1 | > 11 µM (inactive) |
| CCOC(=O)c1c(-n2c(C)cc(/C=C3/C(=O)NC(=O)N(CC)C3=O)c2C)sc2c1CCCC2 | > 11 µM (inactive) |
| Cc1cccc(N(C)S(=O)(=O)c2nnc(NC(=O)c3ccco3)s2)c1 | > 11 µM (inactive) |
| Cc1c(C(=O)O)cccc1-n1c(C)cc(/C=C(/C#N)C(=O)NCc2ccccc2)c1C | > 11 µM (inactive) |
| N#Cc1c(-c2ccccc2Cl)c2c([nH]c1=O)-c1ccccc1OC2 | > 11 µM (inactive) |
| CCC(Oc1ccccc1)C(=O)Nc1ccccn1 (centres undefined) | > 11 µM (inactive) |
| N#CC1=C(N)OC2=C(C(=O)CCC2)C1c1ccc2c(c1)OCO2 (centres undefined) | > 11 µM (inactive) |
| COC(=O)c1sccc1NC(=O)c1ccc(C)s1 | > 11 µM (inactive) |
| CN1C(=O)C(=Cc2ccc(SC3CCCCC3)o2)C(=O)N(C)C1=O | > 11 µM (inactive) |
| CCCCn1c(O)c(/C=C2\C=Nc3ccccc32)c(=O)[nH]c1=O | > 11 µM (inactive) |
| CC1(OC(=O)C2CCCC2)C(=O)C=C2C=C(c3ccsc3)OC=C2C1=O (centres undefined) | > 11 µM (inactive) |
| N#Cc1c(N)nc(SCc2ccncc2)c(C#N)c1-c1cccs1 | > 11 µM (inactive) |
| O=C(NN1C(=O)c2ccccc2NC1c1ccccn1)c1ccc(Br)cc1 (centres undefined) | > 11 µM (inactive) |
| COc1cccc(C(=O)NCC(=O)NNc2ncnc(N)c2[N+](=O)[O-])c1 | > 11 µM (inactive) |
| C[n+]1c(-c2ccccc2)c2cc(N)ccc2c2ccc(N)cc21 | > 11 µM (inactive) |
| Nc1c(O)ccc2c1C(=O)c1ccccc1C2=O | > 11 µM (inactive) |
